Reference: article PMC11396318, “Lupeol-3-carbamate Derivatives: Synthesis and Biological Evaluation as Potential Antitumor Agents” (Molecules, 2024)
Like-named read-outs stand apart in the source and are kept apart here. Values belong to the compound of their own block, whether it stands above or below them.

Columns and labels:
[1] = test system: A549, HepG2, MCF-7; test: MTT anti-proliferative assay, stated for all three tumor cell lines together; assay type: cell-based, human; conditions: for anti-proliferative activity compared with lupeol: three tested cell lines; for IC50: Homo sapiens, 48 h, A549, HepG2 and MCF-7, 48 h, span or bound over the three lines, read-out: IC50 against all three tumor cell lines
Excerpt: (§1) The anti-proliferative activities of 3a–k against human lung cancer cell line (A549), human hepatoma cell line (HepG2), and human breast cancer cell line (MCF-7) were examined. With lupeol and cisplatin as positive controls, the MTT assay was used to evaluate the anti-proliferative activity of all of the synthesized compounds in vitro.
(§2) The MTT (Beyotime, Shanghai, China) colorimetric method was used to test the antitumor activity of the synthetic products. The test compound and the control compound were prepared into the liquid with a concentration of 1, 5, 10, 20, and 40 μmol/L, respectively. The tested tumor cells (A549, HepG2, MCF-7) (Chinese Academy of Sciences, Shanghai, China) were inoculated into 96 well plates with a density of 2 × 10^4 cells/mL, and 90 μL PBS was injected into each well. The 96 well plates were cultured overnight in an incubator, and each well was injected with the same concentration of 10 μL of the test compound. After 48 h, 10 μL of MTT solution was injected into each well. After culture for 4 h, the plates were turned upside down and 100 μL DMSO (Kermel, Tianjin, China) was added. The optical density (OD) values of the compound and the control product were determined at 490 nm wavelength with enzyme-labeled apparatus.

[2] = test system: HepG2 cells; test: AO/EB double staining, cell morphology; assay type: cell-based, human; conditions: HepG2, 48 h, 2, 4 and 8 μmol/L
Experimental: The apoptotic morphological alterations induced by compound 3k·CH3I in HepG2 cells were scrutinized after a 48-h treatment using the acridine orange/ethidium bromide (AO/EB) double staining method, as depicted in Figure 6.
In this study, human hepatoma HepG2 cells were treated with compound 3k·CH3I, and the tested cells were stained by the AO/EB double staining (KeyGEN BioTECH, Nanjing, China) method to observe the morphological changes of the cells. HepG2 cells of logarithmic growth stage were inoculated into confocal six-well plates, and a volume of 2 mL of the cell suspension, adjusted to a concentration of 1 × 10^6 cells per milliliter, was introduced into each well. The cells were cultured in an aseptic constant temperature incubator for 24 h, and 3k·CH3I solution with concentrations of 0, 2, 4, and 8 μmol/L was added successively, and the culture continued for 48 h. The cellular specimens were rinsed with phosphate-buffered saline (PBS) on two occasions, after which 500 µL of staining buffer was introduced to the preparation, followed by storage in a light-protected environment for subsequent analysis. AO (5 µL) and EB (5 µL) staining solutions were added to the six-well plates successively, mixed and incubated at 4 °C for 20 min under light protection, then PBS was added and observed under a fluorescence microscope.

[3] = test system: human liver cancer cell line HepG2; test: MTT anti-proliferative assay, HepG2; assay type: cell-based; conditions: for IC50: read-out: IC50 (μM) HepG2
Excerpt: as §1, §2

[4] = test system: HepG2 cells; test: Intracellular ROS, DCFH-DA, flow cytometry; assay type: cell-based, human; conditions: HepG2, 2, 4 and 8 μmol/L, 48 h, compared with the control group
Experimental: Flow cytometry was additionally used to determine the effect of compound 3k·CH3I on ROS levels in HepG2 cells.
HepG2 cells were inoculated into a six-well plate with 2 mL cell suspension per well at a concentration of 1 × 10^6 cells/mL overnight in an incubation chamber maintained at 37 °C with a 5% CO2 atmosphere. The cells were treated with different concentrations of compound 3k·CH3I (0, 2, 4 and 8 μmol/L) and continued to be cultured for 48 h. The cells underwent a PBS rinse to cleanse them, subsequent digestion with a 0.25% trypsin solution to facilitate detachment, and subsequent centrifugation at 800 revolutions per minute (rpm) for 5 min to sediment the cells. The ensuing cell pellet was then re-suspended in 1 mL of nutrient-rich cell culture medium for further experimental procedures. Then, 5 μmol/L DCFH-DA solution was added to each well and they were incubated for 30 min away from light. After incubation, the cells were digested, the supernatant was centrifuged, and the PBS cell suspension was taken and placed in a flow cytometry to determine the experimental results.

[5] = test system: PI3K/AKT/mTOR pathway in HepG2 cells; test: Western blotting of PI3K/AKT/mTOR-related proteins; assay type: cell-based, human; conditions: HepG2, 2, 4 and 8 μmol/L, 48 h, relative to control
Experimental: In order to better comprehend the effect of compound 3k·CH3I on the expression of proteins related to the mitochondrial apoptosis pathway, HepG2 cells were treated with 3k·CH3I at different concentrations (0, 2, 4, and 8 μmol/L), and Western blotting was used to determine the expression of related proteins, as shown in Figure 9.
HepG2 cells with logarithmic growth stage were selected to make a single-cell suspension and inoculated into a culture bottle with a cell density of 1 × 10^6 cells/mL. The cells were treated with different concentrations of compound 3k·CH3I (0, 2, 4 and 8 μmol/L) and cultured for 48 h. A mixture of 500 μL of phenylmethylsulfonyl fluoride (PMSF) and radio immunoprecipitation assay (RIPA) lysate was added to each well, and the protein content was determined using the bicinchoninic acid (BCA) assay and denatured at high temperature 30 min later. The protein samples were separated by polyacrylamide gel electrophoresis (SDS-PAGE) and transferred to a polyvinylidene fluoride (PVDF) membrane. The membrane was enclosed in 5% skim milk for 2 h, then specific antibodies of different proteins were added, incubated at 4 °C overnight, and secondary antibodies were added for 2 h. Finally, the gel imager was used for detection. […] The gray-scale of the bands was analyzed by gel imaging image analysis software and the relative protein content was calculated.

[6] = test system: HepG2 cells; test: Mitochondrial membrane potential depolarization, JC-1; assay type: cell-based, human; conditions: 48 h; for MMP depolarization: JC-1 flow cytometry, control 7.74%
Excerpt: In order to explore the effect of compound 3k·CH3I on MMP, a JC-1 staining kit was used to detect the depolarization of the MMP of human hepatocellular carcinoma HepG2 cells treated with compound 3k·CH3I, as shown in Figure 8.
Flow cytometry was used to detect the intimal potential of HepG2 cells. […] It was concluded that the apoptosis of HepG2 cells was induced by compound 3k·CH3I and was associated with the mitochondrial-mediated endogenous pathway.
HepG2 cells with logarithmic growth stage were selected and inoculated into a designated confocal six-well plate with 2 mL cell suspension per well (1 × 10^6 cells/mL) and cultured in a sterile incubator for 24 h. The cells were treated with different concentrations of 3k·CH3I (0, 2, 4, 8 μmol/L) and continued to be cultured for 48 h. PBS cleans the cells, 0.25% trypsin digests the cells, and collects the cells. After the drug action time was over, 1 mL of pre-configured JC-1 staining solution was added and incubated for 30 min. After JC-1 incubation, the cells were observed by fluorescence microscope, the supernatant was separated, and the PBS cell suspension was taken and the experimental results were determined by flow cytometry.

[7] = test system: HepG2 cells; test: Annexin V/PI apoptosis by flow cytometry; assay type: cell-based, human; conditions: 48 h, control 3.03%
Experimental: HepG2 cells with logarithmic growth stage were selected and inoculated into a designated confocal six-well plate with 2 mL cell suspension per well (1 × 10^6 cells/mL) and cultured in a sterile incubator for 24 h. […] The cellular preparations were initially rinsed with phosphate-buffered saline (PBS), followed by enzymatic detachment using a 0.25% trypsin solution. Post-collection, the cells underwent centrifugation at 800 revolutions per minute (rpm) for a duration of 5 min to pelletize. The resulting cell pellet was subsequently re-suspended in 1 mL of culture medium designed for cell propagation. The 100 µL cell suspension was transferred into a flow detection tube, with 5 µL AnnexinV added, cultured at room temperature away from light for 15 min, and centrifuged at 800 revolutions per minute (rpm) for a period of 5 min, after which the supernatant containing the staining solution was aspirated. Then, 100 µL of binding buffer for re-suspension and 5 µL of PI dye were added and the solution was mixed well and incubated at low temperature, avoiding light for 15 min. The results were measured by flow cytometry.

[8] = test system: human lung cancer cell line A549; test: MTT anti-proliferative assay, A549; assay type: cell-based; conditions: read-out: IC50 (μM) A549
Excerpt: as §1, §2

[9] = test system: human breast cancer cell line MCF-7; test: MTT anti-proliferative assay, MCF-7; assay type: cell-based; conditions: read-out: IC50 (μM) MCF-7
Excerpt: as §1, §2

[10] = Homo sapiens, HepG2, MTT assay, 48 h of treatment, three independent experiments
[11] = Homo sapiens, A549, MTT assay, 48 h of treatment, three independent experiments
[12] = Homo sapiens, MCF7, MTT assay, 48 h of treatment, three independent experiments
[13] = MTT assay, 48 h of treatment, three independent experiments

Compound: C=C(C)C1CCC2(C)CCC3(C)C(CCC4C5(C)CCC(OC(=O)N6CCN(c7cc[n+](C)cc7)CC6)C(C)(C)C5CCC43C)C12 (stereo not shown) [Compound 3k·CH3I]
- anti-proliferative activity compared with lupeol [1]: more potent than that of lupeol
- apoptotic morphological alterations (AO/EB staining) [2]: bright red fluorescence due to the chromatin concentration and nuclear fragmentation
- activity on HepG2 relative to lupeol ([3]; HepG2, ratio of IC50): about 10 times
- IC50 [3, 10]: 3.13 µM
- ROS levels [4]: increased significantly
- expression of P-AKT, P-PI3K and P-mTOR [5]: downregulation
- expression of basal forms of AKT, PI3K and mTOR [5]: dose-dependent upregulation
- MMP depolarization ([6]; HepG2, 2 μmol/L): 17.2%
- MMP depolarization ([6]; HepG2, 4 μmol/L): 27.3%
- MMP depolarization ([6]; HepG2, 8 μmol/L): 48.9%
- JC-1 fluorescence (microscopy) ([6]; HepG2, different concentrations, compared with the control group): the red fluorescence gradually weakened until it eventually disappeared, and the green fluorescence gradually strengthened
- total percentage of apoptotic and necrotic cells ([7]; HepG2, 4 μmol/L): 45.10%
- total percentage of apoptotic and necrotic cells ([7]; HepG2, 8 μmol/L): 55.6%

Compound: C=C(C)C1CCC2(C)CCC3(C)C(CCC4C5(C)CCC(OC(=O)N6CCN(c7ccncc7)CC6)C(C)(C)C5CCC43C)C12 (stereo not shown) [Compound 3k, Lupeol-3-((4-(pyridin-4-yl)piperazine)-1-carboxylate)]
- IC50 [1]: < 20 µM
- anti-proliferative activity compared with lupeol [1]: more potent than that of lupeol
- IC50 [3, 10]: 14 ± 1.65 µM
- IC50 [8, 11]: 12.1 ± 1.35 µM
- IC50 [9, 12]: 19.9 ± 1.82 µM

Compound: C=C(C)[C@@H]1CC[C@]2(C)CC[C@]3(C)C(CCC4[C@@]5(C)CC[C@H](OC(=O)N6CCSCC6)C(C)(C)C5CC[C@]43C)C12 (stereo partly shown) [Compound 3g, Lupeol-3-(thiomorpholine-1-carboxylate)]
- IC50 [3, 10]: 10.1 ± 1.78 µM
- IC50 [8, 11]: 8.19 ± 1.02 µM
- IC50 [9, 12]: 7.77 ± 1.09 µM

Compound: C=C(C)[C@@H]1CC[C@]2(C)CC[C@]3(C)C(CCC4[C@@]5(C)CC[C@H](OC(=O)N(C)C)C(C)(C)C5CC[C@]43C)C12 (stereo partly shown) [Compound 3a, Lupeol-3-(dimethyl) Carbamate]
- IC50 ([3]; Homo sapiens, HepG2, 48 h): 11.1 ± 1.45 µM
- IC50 ([8]; Homo sapiens, A549, 48 h): 14 ± 1.03 µM
- IC50 ([9]; Homo sapiens, MCF7, 48 h): 10.2 ± 1.24 µM

Compound: C=C(C)[C@@H]1CC[C@]2(C)CC[C@]3(C)C(CCC4[C@@]5(C)CC[C@H](OC(=O)N6CCOCC6)C(C)(C)C5CC[C@]43C)C12 (stereo partly shown) [Compound 3f, Lupeol-3-(morpholine-1-carboxylate)]
- IC50 [3, 10]: 10.8 ± 1.52 µM
- IC50 [8, 11]: 6.76 ± 0.96 µM
- IC50 [9, 12]: 11.3 ± 1.21 µM

Compound: C=C(C)[C@@H]1CC[C@]2(C)CC[C@]3(C)C(CCC4[C@@]5(C)CC[C@H](OC(=O)N6CCNCC6)C(C)(C)C5CC[C@]43C)C12 (stereo partly shown) [Compound 3h, Lupeol-3-(piperazine-1-carboxylate)]
- IC50 [1]: < 20 µM
- IC50 [3, 10]: 11.2 ± 1.45 µM
- IC50 [8, 11]: 12 ± 1.47 µM
- IC50 [9, 12]: 9.78 ± 1.2 µM

Compound: C=C(C)[C@@H]1CC[C@]2(C)CC[C@]3(C)C(CCC4[C@@]5(C)CC[C@H](OC(=O)N6CCN(C)CC6)C(C)(C)C5CC[C@]43C)C12 (stereo partly shown) [Compound 3i, Lupeol-3-((4-methylpiperazine)-1-carboxylate)]
- IC50 [3, 10]: 9.43 ± 1.21 µM
- IC50 [8, 11]: 5.74 ± 0.83 µM
- IC50 [9, 12]: 8.2 ± 1.46 µM

Compound: C=C(C)[C@@H]1CC[C@]2(C)CC[C@]3(C)C(CCC4[C@@]5(C)CC[C@H](OC(=O)N(CC)CC)C(C)(C)C5CC[C@]43C)C12 (stereo partly shown) [Compound 3b, Lupeol-3-(diethyl) Carbamate]
- IC50 ([3]; Homo sapiens, HepG2, 48 h): 13.8 ± 1.23 µM
- IC50 ([8]; Homo sapiens, A549, 48 h): 14 ± 1.25 µM
- IC50 ([9]; Homo sapiens, MCF7, 48 h): 12.7 ± 1.43 µM

Compound: C=C(C)[C@@H]1CC[C@]2(C)CC[C@]3(C)C(CCC4[C@@]5(C)CC[C@H](OC(=O)N(CCC)CCC)C(C)(C)C5CC[C@]43C)C12 (stereo partly shown) [Compound 3c, Lupeol-3-(dipropyl) Carbamate]
- anti-proliferative activity compared with lupeol [1]: more potent than that of lupeol
- IC50 [3, 10]: 5.39 ± 0.77 µM
- IC50 [8, 11]: 15.5 ± 1.2 µM
- IC50 [9, 12]: 15.3 ± 1.11 µM

Compound: C=C(C)[C@@H]1CC[C@]2(C)CC[C@]3(C)C(CCC4[C@@]5(C)CC[C@H](OC(=O)N6CCCC6)C(C)(C)C5CC[C@]43C)C12 (stereo partly shown) [Compound 3d, Lupeol-3-(pyrrolidine-1-carboxylate)]
- IC50 [3, 10]: 17.7 ± 1.35 µM
- IC50 [8, 11]: 11.3 ± 1.14 µM
- IC50 [9, 12]: 12.4 ± 1.55 µM

Compound: C=C(C)[C@@H]1CC[C@]2(C)CC[C@]3(C)C(CCC4[C@@]5(C)CC[C@H](OC(=O)N6CCCCC6)C(C)(C)C5CC[C@]43C)C12 (stereo partly shown) [Compound 3e, Lupeol-3-(piperidine-1-carboxylate)]
- IC50 [1]: < 20 µM
- anti-proliferative activity compared with lupeol [1]: more potent than that of lupeol
- IC50 [3, 10]: 6.91 ± 1.6 µM
- IC50 [8, 11]: 13.2 ± 1.56 µM
- IC50 [9, 12]: 14 ± 1.58 µM

- IC50 [3, 10]: 43.6 ± 1.37 µM
- IC50 [8, 11]: 35.9 ± 1.58 µM
- IC50 [9, 12]: 62 ± 1.79 µM
Compound: C=C(C)[C@@H]1CC[C@]2(C)CC[C@]3(C)[C@H](CC[C@@H]4[C@@]5(C)CC[C@H](O)C(C)(C)[C@@H]5CC[C@]43C)[C@@H]12 [Lupeol]

Compound: N.N.[Cl][Pt][Cl] [Cisplatin, reference compound]
- IC50 [3, 13]: 4.05 ± 0.45 µM
- IC50 [8, 13]: 4.65 ± 0.52 µM
- IC50 [9, 13]: 5.27 ± 0.68 µM
